Results reported in patent US10941152B2, “Pyrazole compounds as modulators of FSHR and uses thereof” (TOCOPHERX, INC., priority 2014, dated 2021).

Experiments:
[1] = biological target: T1, follicle-stimulating hormone (FSH) receptor (Rattus norvegicus, UniProt P20395); experiment: Rat granulosa EC50 FSH (Assay B); format: cell-based
T1 construct: endogenous in cells; host or cells: rat granulosa cells
T1 sequence (P20395 18-692): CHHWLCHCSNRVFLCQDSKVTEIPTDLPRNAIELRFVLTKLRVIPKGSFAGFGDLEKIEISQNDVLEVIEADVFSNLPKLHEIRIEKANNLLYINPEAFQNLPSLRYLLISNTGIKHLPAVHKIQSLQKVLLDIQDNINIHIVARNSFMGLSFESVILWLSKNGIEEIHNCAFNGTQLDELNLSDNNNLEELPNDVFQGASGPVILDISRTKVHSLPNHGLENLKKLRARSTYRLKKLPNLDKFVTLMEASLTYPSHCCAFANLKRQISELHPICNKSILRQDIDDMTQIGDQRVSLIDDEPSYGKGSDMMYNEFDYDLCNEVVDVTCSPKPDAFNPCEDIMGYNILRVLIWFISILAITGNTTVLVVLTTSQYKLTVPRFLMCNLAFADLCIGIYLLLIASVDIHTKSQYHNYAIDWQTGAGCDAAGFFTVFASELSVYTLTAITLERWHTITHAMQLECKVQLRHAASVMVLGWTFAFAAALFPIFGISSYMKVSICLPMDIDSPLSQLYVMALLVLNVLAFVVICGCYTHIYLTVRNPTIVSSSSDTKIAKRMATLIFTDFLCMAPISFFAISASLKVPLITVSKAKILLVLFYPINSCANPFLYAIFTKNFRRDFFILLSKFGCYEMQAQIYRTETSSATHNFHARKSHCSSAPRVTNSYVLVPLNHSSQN
Description: Example 25. Rat granulosa EC50 FSH (Assay B)
The assay was performed pursuant to the teaching of Yanofsky et al. (2006) Allosteric activation of the follicle-stimulating hormone (FSH) receptor by selective, nonpeptide agonists (JBC 281(19): 13226-13233, which is incorporated by reference in the disclosure of the invention).

FSHR = biological target: T2, FSHR (Homo sapiens, UniProt P23945); experiment: EC50 of cyclic AMP production in CHO FSHR cells + EC20 FSH (Assay A); format: cell-based; details: cyclic AMP production in CHO FSHR cells + EC20 FSH (0.265 pM), HTRF
T2 construct: expressed in transfected cells; host or cells: CHO (Cho-FSHR-LUC-1-1-43)
T2 sequence (P23945 18-695): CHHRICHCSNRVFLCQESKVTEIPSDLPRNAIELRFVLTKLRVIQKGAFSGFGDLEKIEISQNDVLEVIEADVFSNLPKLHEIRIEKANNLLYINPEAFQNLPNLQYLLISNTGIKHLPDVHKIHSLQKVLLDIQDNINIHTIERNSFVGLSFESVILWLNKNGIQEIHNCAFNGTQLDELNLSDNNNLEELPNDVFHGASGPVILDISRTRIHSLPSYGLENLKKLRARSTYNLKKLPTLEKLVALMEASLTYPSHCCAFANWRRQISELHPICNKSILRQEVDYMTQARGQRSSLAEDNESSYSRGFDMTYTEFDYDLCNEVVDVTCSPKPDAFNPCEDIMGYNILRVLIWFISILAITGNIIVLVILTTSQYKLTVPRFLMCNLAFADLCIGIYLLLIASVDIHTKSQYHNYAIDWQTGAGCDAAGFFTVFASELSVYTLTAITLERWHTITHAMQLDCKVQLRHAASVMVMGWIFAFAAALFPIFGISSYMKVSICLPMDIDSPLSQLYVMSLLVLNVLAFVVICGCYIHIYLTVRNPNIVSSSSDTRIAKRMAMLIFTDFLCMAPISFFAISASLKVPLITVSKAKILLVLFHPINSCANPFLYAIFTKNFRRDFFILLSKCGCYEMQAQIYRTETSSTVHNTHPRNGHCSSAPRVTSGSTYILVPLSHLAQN
Summary of the method: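 CHO cells expressing FSHR, stimulated 1 h at 37° C with compound plus EC20 FSH (0.265 pM final) and 200 μM IBMX. cAMP measured by HTRF (665/620 nm ratio) after 1 h at room temperature; effect expressed relative to maximum response of FSH standard.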

SMILES | EC50 [1] [nM] | EC50 (FSHR) [nM]
COc1cc2c(cc1-c1ncnn1C)-c1c(c(C(=O)N(C)C(C)(C)C)nn1-c1ccsc1)CO2 [Compound 208] | > 500 | 10 to 100
COc1cc2c(cc1-c1cncc(C(=O)O)c1)-c1c(c(C(=O)N(C)C(C)(C)C#N)nn1-c1cc(F)cc(F)c1)CO2 [Compound 107, 5-(3-((2-cyanopropan-2-yl)(methyl)carbamoyl)-1-(3,5-difluorophenyl)-7-methoxy-1,4-dihydrochromeno[4,3-c]pyrazole-8-yl)nicotinic acid] | 101 to 500 | < 10
COc1cc(F)cc(-n2nc(C(=O)N3CCOCC3(C)C)c3c2-c2cc(-c4cnn(CC(N)=O)c4)c(OC)cc2OC3)c1 [Compound 73, 2-(4-(3-(3,3-dimethylmorpholine-4-carbonyl)-1-(3-fluoro-5-methoxyphenyl)-7-methoxy-1,4-dihydrochromeno[4,3-c]pyrazol-8-yl)-1H-pyrazol-1-yl)acetamide] | 101 to 500 | < 10
COc1cc2c(cc1-c1nccnc1C#N)-c1c(c(C(=O)N(C)C(C)(C)C)nn1-c1cc(Cl)cc(Cl)c1)CO2 [Compound 112, N-tert-butyl-8-(3-cyanopyrazin-2-yl)-1-(3,5-dichlorophenyl)-7-methoxy-N-methyl-1,4-dihydrochromeno[4,3-c]pyrazole-3-carboxamide] | 101 to 500 | 10 to 100
COc1cc2c(cc1-c1ccn(C)n1)-c1c(c(C(=O)N3CC[S+]([O-])CC3(C)C)nn1-c1cc(Cl)cc(Cl)c1)CO2 (stereo not drawn) [Compound 5, 4-{[1-(3,5-dichlorophenyl)-7-methoxy-8-(1-methyl-1H-pyrazol-3-yl)-1H,4H-chromeno[4,3-c]pyrazol-3-yl]carbonyl}-3,3-dimethyl-1$1^4,4-thiomorpholin-1-one] | 101 to 500 | 10 to 100
COc1cc(OC)cc(-n2nc(C(=O)N(C)C(C)(C)C)c3c2-c2cc(-c4ccccn4)c(OC)cc2OC3)c1 [Compound 46, N-tert-butyl-1-(3,5-dimethoxyphenyl)-7-methoxy-N-methyl-8-(pyridin-2-yl)-1,4-dihydrochromeno[4,3-c]pyrazole-3-carboxamide] | 101 to 500 | 10 to 100

Next, values leading:

EC50 [1] [nM] | EC50 (FSHR) [nM] | SMILES
< 10 | < 10 | COc1cc2c(cc1-c1cncc(C(=O)O)c1)-c1c(c(C(=O)N3CCOCC3(C)C)nn1-c1cc(Cl)cc(Cl)c1)CO2 [Compound 178, 5-(1-(3,5-dichlorophenyl)-3-(3,3-dimethylmorpholine-4-carbonyl)-7-methoxy-1,4-dihydrochromeno[4,3-c]pyrazol-8-yl)nicotinic acid]
10 to 100 | < 10 | COc1cc2c(cc1-c1cncc(C#N)c1)-c1c(c(C(=O)N3CC[S+]([O-])CC3(C)C)nn1-c1cc(F)cc(F)c1)CO2 (stereo not drawn) [Compound 49]
101 to 500 | 10 to 100 | COc1cc2c(cc1-c1ccn(C)n1)-c1c(c(C(=O)N3CCOCC3(C)C)nn1-c1cc(F)cc(Cl)c1)CO2 [Compound 29, (1-(3-chloro-5-fluorophenyl)-7-methoxy-8-(1-methyl-1H-pyrazol-3-yl)-1,4-dihydrochromeno[4,3-c]pyrazol-3-yl)(3,3-dimethylmorpholino)methanone]
101 to 500 | < 10 | COc1cc(OC)cc(-n2nc(C(=O)N(C)C(C)(C)C)c3c2-c2cc(-c4nn(C)cc4Br)c(OC)cc2OC3)c1 [Compound 145, 8-(4-bromo-1-methyl-1H-pyrazol-3-yl)-N-tert-butyl-1-(3,5-dimethoxyphenyl)-7-methoxy-N-methyl-1,4-dihydrochromeno[4,3-c]pyrazole-3-carboxamide]
101 to 500 | < 10 | CCOC(=O)C1CC1c1cc2c(cc1OC)OCc1c(C(=O)N(C)C(C)(C)C)nn(-c3cc(Cl)cc(Cl)c3)c1-2 (stereo not drawn) [Compound 196]
10 to 100 | < 10 | COc1cc2c(cc1-c1cccnc1F)-c1c(c(C(=O)N3CCOCC3(C)C)nn1-c1ccsc1)CO2 [Compound 61, (3,3-dimethylmorpholino)(8-(2-fluoropyridin-3-yl)-7-methoxy-1-(thiophen-3-yl)-1,4-dihydrochromeno[4,3-c]pyrazol-3-yl)methanone]
